Laboratory results published in patent US8546438B2, “Substituted (thiophenyl-carbonyl)imidazolidinones, and use thereof” (priority 2008, dated 2013).

Columns and labels:
[1] = test system: HIV-1LAI; test: H9 assay with wild-type HIV-1LAI (AlamarBlue, supernatant infection); assay type: cell-based; details: Human immunodeficiency virus 1, H9 cells, 10% FCS
Protocol: For the mixture for a 96-well MTP, 3 million PBLs are pelleted, suspended in 1 ml of RPMI 1640 medium/10% FCS and incubated together with a suitable amount of HIV-1LAI (NIH AIDS Research & Reference Reagent Program, Germantown, USA) at 37° C. for 2 hours (pellet infection). Unadsorbed viruses are subsequently washed out with PBS, and the infected cells are pelleted again and suspended in 18 ml of RPMI 1640 medium/10% FCS/interleukin-2 (40 U/ml). 180 μl thereof are pipetted into each well of a white 96-well MTP with 20 μl of test substance in suitable dilution. Alternatively, after preparation of the substance dilutions in the MTP, the HIV is pipetted in together with the cells and is not washed out again (supernatant infection). In order to avoid edge effects, the wells at the edge of the MTP are not used for substance dilutions. The second vertical row of the MTP contains only infected cells (virus control) and the eleventh vertical row only uninfected cells (cell control), in each case in RPMI 1640 medium/10% FCS/interleukin-2 (40 U/ml). The other wells of the MTP contain the compounds of the invention in various concentrations starting from the third vertical row, from which the test substances are diluted in 3-fold steps up to the tenth vertical row 3^7-fold. The test substances are dissolved in DMSO, whereby the final DMSO concentration in the test mixture is 1%. The test mixtures are incubated at 37° C./5% CO2. After 5 and 7 days, 50 μl of cell-free supernatant are removed from each well to determine the amount of p24 present by means of a p24 ELISA (HIV-1 p24^CA Antigen Capture Assay Kit, NCI-Frederick Cancer Research and Development Center, Frederick, USA). From the resulting values of the photometric evaluation (450/620 nm) the EC50 values of the test substances are determined as the concentration at which the amount of p24 is 50% of the untreated infected cells.
Alternatively, H9 cells (ATCC, Wesel, Germany) are employed instead of PBLs for testing the test substances. H9 cells are incubated in RPMI 1640 medium with 2% or 10% FCS as a HIV-1LAI supernatant infection at 37° C./5% CO2, (20 μl of substance dilution and 80 μl of cells/virus per well) in accordance with the pattern described above for 5 days. Subsequently, 10 μl of AlamarBlue (Invitrogen, Karlsruhe, Germany) are added to each well, and the MTPs are incubated at 37° C. for 3 hours before the fluorimetric evaluation takes place (544/590 nm). The resulting values are about 40 000 for the untreated uninfected cells and about 7000 for the untreated infected cells. In the low concentration range, the EC50 values of the test substances are determined as the concentration at which the fluorescence is 50% of the untreated uninfected cells (in each case subtracting the values of the untreated infected cells). In addition, in the high concentration range, the CC50 values of the test substances are determined as the concentration at which the fluorescence is 50% of the untreated uninfected cells (in each case subtracting the values of the untreated infected cells).

[2] = test system: HIV-1NL4-3 wt; test: Light assay with wild-type HI reporter virus in MT4 7F2 cells; assay type: cell-based; details: Human immunodeficiency virus 1, read-out: EC50(nM) MT4 7F2 cells HIV-1NL4-3 wt 2% FCS
Protocol: (§1) For the mixture for a 96-well MTP, 3 million MT4 7F2 cells are pelleted, suspended in 1 ml of RPMI 1640 medium without phenol red (Invitrogen, Karlsruhe, Germany)/10% FCS/10% AIM-V (Invitrogen, Karlsruhe, Germany) and incubated together with a suitable amount of the corresponding HIV-1NL4-3 reporter virus at 37° C. for 2 hours (pellet infection). Unadsorbed viruses are subsequently washed out with PBS, and the infected cells are pelleted again and suspended in 8 ml of RPMI 1640 medium without phenol red/2% or 10% FCS/10% AIM-V. 80 μl thereof are pipetted into each well of a white 96-well MTP with 20 μl of test substance in suitable dilution. To avoid edge effects, the wells on the edge of the MTP are not used for substance dilutions. The second vertical row of the MTP contains only infected cells (virus control) and the eleventh vertical row only uninfected cells (cell control), in each case in RPMI 1640 medium without phenol red/2% or 10% FCS/10% AIM-V. The other wells of the MTP contain the compounds of the invention in various concentrations starting from the third vertical row, from which the test substances are diluted in 3-fold steps up to the tenth vertical row 3^7-fold. The test substances are dissolved in DMSO, whereby the final DMSO concentration in the test mixture is 1%. The test mixtures are incubated at 37° C./5% CO2 for five days and, after the addition of 15 μl of Lu164 substrate (5 mg/ml coelenterazine dissolved in 30 μM glutathione/DMSO, 100 mM NaCl, 1M MES, 100 mM glutathione), evaluated by luminometry. The resulting values are in the region of 1 000 000 RLUs (relative light units) for the virus control and 300 to 400 RLUs for the cell control. The EC50 values of the test substances are determined as the concentration at which the virus replication measured in RLUs is 50% of the untreated infected cells.

[3] = test system: HIV-1NL4-3 K103N-Y181C; test: Light assay with inhibitor-resistant HI reporter virus in MT4 7F2 cells; assay type: cell-based; details: Human immunodeficiency virus 1, read-out: EC50(nM) MT4 7F2 cells HIV-1NL4-3 K103N-Y181C 2% FCS
Protocol: as §1

[4] = target: T1, reverse transcriptase (Human immunodeficiency virus type 1 group M subtype B, UniProt P04585); test: Biochemical reverse transcriptase assay (Reverse Transcriptase Assay, colorimetric, Roche); details: read-out: IC50(nM) RT assay
T1 construct: negative control (mixture without reverse transcriptase); purchased Roche Diagnostics GmbH, Mannheim, Germany
Protocol: The “Reverse Transcriptase Assay, colorimetric” (Roche Diagnostics GmbH, Mannheim, Germany) is used in accordance with the manufacturer's information. The test substances are dissolved in DMSO and are used in the test diluted in 5-fold steps (final DMSO concentration 1%). The resulting values of the photometric evaluation (405/492 nm) are less than 0.1 for the negative control (mixture without reverse transcriptase) and are in the region of 1.5 for the positive control (mixture without test substance). The IC50 values of the test substances are determined as the concentration of the test substance dilution at which the measured optical density is 50% of the positive control.

Row | SMILES | EC50 [1] [nM] | EC50 [2] [nM] | EC50 [3] [nM] | IC50 [4] [nM]
1 | N#Cc1cccc(-c2cc(C(=O)N3CNC(=O)C3)sc2-c2cc(F)cc(Cl)c2)c1 [Example 1, 3-{2-(3-Chloro-5-fluorophenyl)-5-[(4-oxoimidazolidin-1-yl)carbonyl]thiophen-3-yl}benzenecarbonitrile] | 9 | 1 | 45 | 
2 | O=C1CN(C(=O)c2cc(-c3ccc(F)c(Cl)c3)c(-c3cc(F)cc(Cl)c3)s2)CN1 [Example 2, 1-{[4-(3-Chloro-4-fluorophenyl)-5-(3-chloro-5-fluorophenyl)thiophen-2-yl]carbonyl}imidazolidin-4-one] | 68 | 20 | 176 | 920
3 | N#Cc1cccc(-c2cc(C(=O)N3CNC(=O)C3)sc2-c2cccc(Cl)c2)c1 [Example 3, 3-{2-(3-Chlorophenyl)-5-[(4-oxoimidazolidin-1-yl)carbonyl]thiophen-3-yl}benzenecarbonitrile] | 71 | 5 | 100 | 740
4 | N#Cc1cc(-c2cc(C(=O)N3CNC(=O)C3)sc2-c2cc(F)cc(Cl)c2)ccc1F [Example 4, 5-{2-(3-Chloro-5-fluorophenyl)-5-[(4-oxoimidazolidin-1-yl)carbonyl]thiophen-3-yl}-2-fluorobenzenecarbonitrile] | 12 | < 1.5 | 44 | 
5 | O=C1CN(C(=O)c2cc(-c3cccc(Cl)c3)c(-c3cc(F)cc(Cl)c3)s2)CN1 [Example 5, 1-{[5-(3-Chloro-5-fluorophenyl)-4-(3-chlorophenyl)thiophen-2-yl]carbonyl}imidazolidin-4-one] | 85 | 21 | 258 | 2170
6 | N#Cc1cc(-c2sc(C(=O)N3CNC(=O)C3)cc2-c2cccc(Cl)c2)ccc1F [Example 6, 5-{3-(3-Chlorophenyl)-5-[(4-oxoimidazolidin-1-yl)carbonyl]thiophen-2-yl}-2-fluorobenzenecarbonitrile] | 900 | 165 | 348 | 
7 | O=C1CN(C(=O)c2cc(-c3cccc(Cl)c3)c(-c3cccc(OC(F)(F)F)c3)s2)CN1 [Example 7, 1-({4-(3-Chlorophenyl)-5-[3-(trifluoromethoxy)phenyl]thiophen-2-yl}carbonyl)imidazolidin-4-one] | 1410 | 100 | 150 | 
8 | N#Cc1cc(-c2cc(C(=O)N3CNC(=O)C3)sc2-c2cccc(Cl)c2)ccc1F [Example 8, 5-{2-(3-Chlorophenyl)-5-[(4-oxoimidazolidin-1-yl)carbonyl]thiophen-3-yl}-2-fluorobenzenecarbonitrile] | 103 | 5 | 121 | 
9 | O=C1CN(C(=O)c2cc(-c3ccc(F)c(Cl)c3)c(-c3cccc(Cl)c3)s2)CN1 [Example 9, 1-{[4-(3-Chloro-4-fluorophenyl)-5-(3-chlorophenyl)thiophen-2-yl]carbonyl}imidazolidin-4-one] | 593 | 35 | 260 | 
10 | N#Cc1cc(F)cc(-c2sc(C(=O)N3CNC(=O)C3)cc2-c2ccc(F)c(Cl)c2)c1 [Example 10, 3-{3-(3-Chloro-4-fluorophenyl)-5-[(4-oxoimidazolidin-1-yl)carbonyl]thiophen-2-yl}-5-fluorobenzenecarbonitrile] | 34 | 5 | 40 | 
11 | N#Cc1cc(F)cc(-c2sc(C(=O)N3CNC(=O)C3)cc2-c2cccc(Cl)c2)c1 [Example 11, 3-{3-(3-Chlorophenyl)-5-[(4-oxoimidazolidin-1-yl)carbonyl]thiophen-2-yl}-5-fluorobenzenecarbonitrile] | 22 | 2 | 123 | 
